The values below are quoted from earlier work in patent US12012625B2, “Method for producing bioactive composition” (Imam Abdulrahman Bin Faisal University, priority 2020, dated 2024).

Data set [1] has as its system B. amyloliquefaciens.
For data set [2], the system named is B. subtilis.

With `Cc1cc(=O)c2c(O)c3c(O)cc(=O)c4c3c3c(c(Cl)c(O)c1c23)C(C)(C)C=4O` [chlorxanthomycin], the growth inhibition entry in data set [1] and in data set [2] was “inhibited the growth” in each case.
